Laboratory results as given in patent US20260347409A1, “CHEMICALLY MODIFIED POLYPEPTIDE” (SUZHOU GLENKOL PHARMA TECHNOLOGY CO., LTD., priority 2023, published 2026).
Where a SMILES comes first, the peptide text is derived from it. Where no end group is shown, it is not given here. [ ]: non-standard residue; d: D form. The star is where a group is joined. pY = N[C@@H](Cc1ccc(OP(=O)(O)O)cc1)C(=O)O; NMeY = CN[C@@H](Cc1ccc(O)cc1)C(=O)O; Palmitoyl = CCCCCCCCCCCCCCCC(=O)*; Tle = CC(C)(C)[C@H](N)C(=O)O

What was measured:
[1] = Pharmacokinetic characteristics in rats after intravenous administration (plasma, LC-MS/MS); assay type: in vivo; conditions: SD rats, intravenous (tail vein), 10 mg/kg; for MRT inf: rat
Procedure: Experimental Example 2: Pharmacokinetic Characteristics of Various Compounds in Rats
Intravenous administration: Three SD rats per group were administered the compounds of Example 1, Example 2, Example 3, Example 6, Example 7, Example 17, and Example 19 via the tail vein, respectively, at a dose of 10 mg/kg. all SD rats were allowed free access to food and water after administration. Plasma was collected 3 min, 10 min, 30 min, 1 h, 2 h, 6 h, 10 h, and 24 h after administration, with 3 rats per time point.
Sample processing: Whole blood was anticoagulated with EDTA-K2. Within 30 minutes of collection, the blood was centrifuged at 3000 g for 10 minutes at 2-8 °C. After centrifugation, the separated plasma was transferred to new 1.5 mL centrifuge tubes and stored at −80 °C.
Analytical method: The concentrations of each compounds in rat plasma were determined by LC-MS/MS using Shimadzu LC30AD and AB Sciex QTRAP 6500+instruments. The relevant pharmacokinetic parameters after administration were calculated.

PC-12 cells = assay: Cell viability of PC-12 neural cells under glutamate stimulation (excitotoxic cell death model, propidium iodide/Hoechst staining); assay type: cell-based, rat; conditions: for Normalized cell viability (%): 10 nM compound, 30 min pretreatment, then glutamate stimulation 24 h, normalized to positive control MK-801; for EC50: dose-response relationship in promoting the viability of PC-12 neurons, glutamate stimulation
Procedure: 1.1. Culture of PC-12 Cell Line and Establishment of Excitotoxic Cell Death Model
PC-12 cells (a […] cell line derived from rat adrenal medulla) were cultured in DMEM/F12 complete medium until eaching 80-90% confluence. The cells were then digested, collected, resuspended, and seeded at density of 5×10^4 cells per well in a 24-well plate precoated with coverslips. Following 26 hours of cell culture, excitotoxic cell death was induced by glutamate stimulation. For model establishment: an appropriate amount of glutamate was weighed and dissolved in DMEM/F12 medium to prepare a stock solution. After filtration, the stock solution was diluted with culture medium and administered to the cells via medium replacement. The cells were further incubated for 24 hours after administration.
1.2 Administration of Small Molecules
Prior to glutamate modeling, cells incubated as described in the previous step were pretreated with 10 nM of the polypeptide compound according to the present application for 30 minutes, followed by glutamate stimulation.
1.3. Propidium Iodide Staining
Cells treated with the polypeptide compound according to the present application were stained with propidium iodide to assess cell death. After discarding the culture medium, the cells were washed with PBS, and propidium iodide/Hoechst was added. After incubating for 30 minutes, the cells were removed and the staining solution was discarded. After washing with PBS, the cells were fixed and mounted, and subjected to image acquisition under a fluorescence microscope. The number of propidium iodide-positive cells and Hoechst-positive cells in the acquired images was counted to calculate the cell viability. MK-801 was used as the positive control compound. The normalized cell viability was calculated using the following formula: (cell viability of the compound group −cell viability of the glutamate group)/(cell viability of the positive control group −cell viability of the glutamate group)×100%.
Based on the above dose-response studies of the compound, the inhibitory effects of different small-molecule compounds at the same dose (10 nM) against excitotoxic death in PC-12 neurons cells were further compared.
Based on this, the dose-response relationship of the neuroprotective effect of the polypeptide compounds according to the present application on PC-12 neural cells was analyzed.

Compound | Normalized cell viability (%) (PC-12 cells) | also measured
CC(C)C[C@H](NC(=O)[C@H](CCCCN)NC(=O)[C@H](CC(N)=O)NC(=O)[C@H](CCCNC(=N)N)NC(=O)[C@H](CC(N)=O)NC(=O)[C@H](CCCCN)NC(=O)[C@H](CCCCN)NC(=O)[C@H](CCCNC(=N)N)NC(=O)[C@H](CCCNC(=N)N)NC(=O)[C@H](CCCNC(=N)N)NC(=O)[C@H](CCC(N)=O)NC(=O)[C@H](CCCNC(=N)N)NC(=O)[C@H](CCCNC(=N)N)NC(=O)[C@H](CCCCN)NC(=O)[C@H](CCCCN)NC(=O)[C@H](CCCNC(=N)N)NC(=O)CNC(=O)[C@@H](N)Cc1ccc(OP(=O)(O)O)cc1)C(=O)N[C@@H](CCCNC(=N)N)C(=O)N[C@@H](CCCNC(=N)N)C(=O)N[C@@H](CCC(N)=O)C(=O)N[C@@H](Cc1c[nH]cn1)C(=O)N[C@@H](CO)C(=O)N[C@@H](Cc1ccc(O)cc1)C(=O)O [Example 3] (H-[pY]GRKKRRQRRRKKNRNKLRRQHSY-OH) | – | T1/2 [1]: 1.28 h; Vss [1]: 7.90 L/kg; MRT inf [1]: 1.71 h
CN[C@@H](Cc1ccc(O)cc1)C(=O)NCC(=O)N[C@@H](CCCNC(=N)N)C(=O)N[C@@H](CCCCN)C(=O)N[C@@H](CCCCN)C(=O)N[C@@H](CCCNC(=N)N)C(=O)N[C@@H](CCCNC(=N)N)C(=O)N[C@@H](CCC(N)=O)C(=O)N[C@@H](CCCNC(=N)N)C(=O)N[C@@H](CCCNC(=N)N)C(=O)N[C@@H](CCCNC(=N)N)C(=O)N[C@@H](CCCCN)C(=O)N[C@@H](CCCCN)C(=O)N[C@@H](CC(N)=O)C(=O)N[C@@H](CCCNC(=N)N)C(=O)N[C@@H](CC(N)=O)C(=O)N[C@@H](CCCCN)C(=O)N[C@@H](CC(C)C)C(=O)N[C@@H](CCCNC(=N)N)C(=O)N[C@@H](CCCNC(=N)N)C(=O)N[C@@H](CCC(N)=O)C(=O)N[C@@H](Cc1c[nH]cn1)C(=O)N[C@@H](CO)C(=O)N[C@@H](Cc1ccc(O)cc1)C(N)=O [Example 9] (H-[NMeY]GRKKRRQRRRKKNRNKLRRQHSY-NH2) | 63.17% | EC50 (PC-12 cells): 4.83 nM
CCCCCCCCCCCCCCCC(=O)N[C@@H](Cc1ccc(O)cc1)C(=O)NCC(=O)N[C@@H](CCCNC(=N)N)C(=O)N[C@@H](CCCCN)C(=O)N[C@@H](CCCCN)C(=O)N[C@@H](CCCNC(=N)N)C(=O)N[C@@H](CCCNC(=N)N)C(=O)N[C@@H](CCC(N)=O)C(=O)N[C@@H](CCCNC(=N)N)C(=O)N[C@@H](CCCNC(=N)N)C(=O)N[C@@H](CCCNC(=N)N)C(=O)N[C@@H](CCCCN)C(=O)N[C@@H](CCCCN)C(=O)N[C@@H](CC(N)=O)C(=O)N[C@@H](CCCNC(=N)N)C(=O)N[C@@H](CC(N)=O)C(=O)N[C@@H](CCCCN)C(=O)N[C@@H](CC(C)C)C(=O)N[C@@H](CCCNC(=N)N)C(=O)N[C@@H](CCCNC(=N)N)C(=O)N[C@@H](CCC(N)=O)C(=O)N[C@@H](Cc1c[nH]cn1)C(=O)N[C@@H](CO)C(=O)N[C@@H](Cc1ccc(O)cc1)C(N)=O [Example 10] (Palmitoyl-YGRKKRRQRRRKKNRNKLRRQHSY-NH2) | 49.46% | –
CCCCCCCCCCCCCCCC(=O)NCCOCCOCC(=O)NCCCC[C@H](NC(=O)[C@H](CCCNC(=N)N)NC(=O)[C@H](CCCNC(=N)N)NC(=O)[C@H](CCCNC(=N)N)NC(=O)[C@H](CCC(N)=O)NC(=O)[C@H](CCCNC(=N)N)NC(=O)[C@H](CCCNC(=N)N)NC(=O)[C@H](CCCCN)NC(=O)[C@H](CCCCN)NC(=O)[C@H](CCCNC(=N)N)NC(=O)CNC(=O)[C@@H](N)Cc1ccc(O)cc1)C(=O)N[C@@H](CCCCN)C(=O)N[C@@H](CC(N)=O)C(=O)N[C@@H](CCCNC(=N)N)C(=O)N[C@@H](CC(N)=O)C(=O)N[C@@H](CCCCN)C(=O)N[C@@H](CC(C)C)C(=O)N[C@@H](CCCNC(=N)N)C(=O)N[C@@H](CCCNC(=N)N)C(=O)N[C@@H](CCC(N)=O)C(=O)N[C@@H](Cc1c[nH]cn1)C(=O)N[C@@H](CO)C(=O)N[C@@H](Cc1ccc(O)cc1)C(=O)O [Example 14, YGRKKRRQRRRK(N-AEEA-Palmitic acid)KNRNKLRRQHSY] | 84.14% | –
CC(=O)N[C@@H](Cc1ccc(O)cc1)C(=O)NCC(=O)N[C@@H](CCCNC(=N)N)C(=O)N[C@@H](CCCCN)C(=O)N[C@@H](CCCCN)C(=O)N[C@@H](CCCNC(=N)N)C(=O)N[C@@H](CCCNC(=N)N)C(=O)N[C@@H](CCC(=O)O)C(=O)N[C@@H](CCCNC(=N)N)C(=O)N[C@@H](CCCNC(=N)N)C(=O)N[C@@H](CCCNC(=N)N)C(=O)N[C@@H](CCCCN)C(=O)N[C@@H](CCCCN)C(=O)N[C@@H](CC(=O)O)C(=O)N[C@@H](CCCNC(=N)N)C(=O)N[C@@H](CC(=O)O)C(=O)N[C@@H](CCCCN)C(=O)N[C@H](CC(C)C)C(=O)N[C@@H](CCCNC(=N)N)C(=O)N[C@@H](CCCNC(=N)N)C(=O)N[C@@H](CCC(=O)O)C(=O)N[C@@H](Cc1c[nH]cn1)C(=O)N[C@@H](CO)C(=O)N[C@@H](Cc1ccc(O)cc1)C(N)=O [Example 20, Ac-YGRKKRRERRRKKDRDK(D-L)RREHSY-NH2] (Ac-YGRKKRRERRRKKDRDK[dL]RREHSY-NH2) | 87.36% | –
CC(=O)N[C@@H](Cc1ccc(O)cc1)C(=O)NCC(=O)N[C@@H](CCCNC(=N)N)C(=O)N[C@@H](CCCCN)C(=O)N[C@@H](CCCCN)C(=O)N[C@@H](CCCNC(=N)N)C(=O)N[C@@H](CCCNC(=N)N)C(=O)N[C@@H](CCC(=O)O)C(=O)N[C@@H](CCCNC(=N)N)C(=O)N[C@@H](CCCNC(=N)N)C(=O)N[C@@H](CCCNC(=N)N)C(=O)N[C@@H](CCCCN)C(=O)N[C@@H](CCCCN)C(=O)N[C@@H](CC(=O)O)C(=O)N[C@@H](CCCNC(=N)N)C(=O)N[C@@H](CC(=O)O)C(=O)N[C@@H](CCCCN)C(=O)N[C@H](C(=O)N[C@@H](CCCNC(=N)N)C(=O)N[C@@H](CCCNC(=N)N)C(=O)N[C@@H](CCC(=O)O)C(=O)N[C@@H](Cc1c[nH]cn1)C(=O)N[C@@H](CO)C(=O)N[C@@H](Cc1ccc(O)cc1)C(N)=O)C(C)(C)C [Example 25, Ac-YGRKKRRERRRKKDRDKTleRREHSY-NH2] (Ac-YGRKKRRERRRKKDRDK[Tle]RREHSY-NH2) | 86.80% | –
CC(=O)N[C@@H](Cc1ccc(O)cc1)C(=O)NCC(=O)N[C@@H](CCCNC(=N)N)C(=O)N[C@@H](CCCCN)C(=O)N[C@H](CCCCN)C(=O)N[C@H](CCCNC(=N)N)C(=O)N[C@@H](CCCNC(=N)N)C(=O)N[C@@H](CCC(=O)O)C(=O)N[C@@H](CCCNC(=N)N)C(=O)N[C@H](CCCNC(=N)N)C(=O)N[C@@H](CCCNC(=N)N)C(=O)N[C@@H](CCCCN)C(=O)N[C@@H](CCCCN)C(=O)N[C@@H](CC(=O)O)C(=O)N[C@@H](CCCNC(=N)N)C(=O)N[C@@H](CC(=O)O)C(=O)N[C@@H](CCCCN)C(=O)N[C@H](CC(C)C)C(=O)N[C@H](CCCNC(=N)N)C(=O)N[C@@H](CCCNC(=N)N)C(=O)N[C@@H](CCC(=O)O)C(=O)N[C@@H](Cc1c[nH]cn1)C(=O)N[C@@H](CO)C(=O)N[C@@H](Cc1ccc(O)cc1)C(N)=O [Example 26, Ac-YGRK(D-K)(D-R)RER(D-R)RKKDRDK(D-L)(D-R)REHSY-NH2] (Ac-YGRK[dK][dR]RER[dR]RKKDRDK[dL][dR]REHSY-NH2) | 82.39% | –
Ac-YGRKKRRERRRKKDRDKLRREHSY-NH2 [Example 18] | 87.20% | –
Ac-YGRKKRRERRRKKDRDKVRREHSY-NH2 [Example 23] | 74.16% | –
Ac-YGRKKRRQRRRKKNRNKLRRQHSY [Example 4] | 85.00% | –
YGRKKRRERRRKKDRNKLRRQHSY [Example 17] | – | T1/2 [1]: 1.66 h; Vss [1]: 23.1 L/kg; MRT inf [1]: 2.29 h
YGRKKRRQRRRKKNRDKLRREHSY [Example 16] | 85.15% | EC50 (PC-12 cells): 18.8 nM
YGRKKRRQRRRKKNRNKIRRQHSY-NH2 [Example 12] | 58.59% | –
